{
  "source": "paper PMC7380940",
  "about": "“Alterations in the intrinsic properties of striatal cholinergic interneurons after dopamine lesion and chronic L-DOPA” (eLife, 2020)",
  "test_system": "T1, Hyperpolarization-activated cyclic nucleotide-gated (HCN) channels (native, isoform not resolved)",
  "T1 construct": "native HCN current (Ih) in striatal cholinergic interneurons, acute slices",
  "test": "whole-cell voltage-clamp of Ih in striatal slices, concentration-response",
  "type": "cell-based, Mus musculus",
  "from_the_text": "whole-cell voltage-clamp of Ih in striatal slices, concentration-response on Hyperpolarization-activated cyclic nucleotide-gated (HCN) channels (native, isoform not resolved) | Dependence of Ih density (as measured on Figure 3E) on ZD7288 concentration.",
  "data": [
    {"smiles": "CC/[N+](c1ccccc1)=c1\\cc(NC)n(C)c(C)n1", "note": "[ZD7288]", "values": [
      {"measurement": "IC50", "result": 1400, "unit": "nM"}
    ]}
  ]
}
